From patent publication US8242302B2, “Inhibitor of ischemic disorders” (Fukuoka University, priority 2007, dated 2012)

Key:
[1] = system: middle cerebral artery (MCA) occlusion model mice; assay: Evaluation of preventive effect on ischemia-reperfusion brain damage (MCA occlusion model, drug i.v. immediately before and 3 h after infarction); assay type: in vivo, male ddY mice; conditions: 4 h MCA occlusion, infarct volume 24 h after start of occlusion (TTC)
Experimental: In addition, a drug was administered immediately before infarction and during infarction in the MCA occlusion model, and the effect as a preventive drug was also investigated.
(1) Evaluation Method for Preventive Effect of Ischemia-Reperfusion Brain Damage
With the use of male ddY mice (25-30 g, 6-7 weeks old), middle cerebral artery (MCA) occlusion model mice were prepared according to the method of Koizumi et al. (“Strokes”, Vol. 8, pp 1-8, 1986). The MCA occlusion was carried out for 4 hours, a test drug solution was intravenously administered twice, namely, immediately before infarction and 3 hours after infarction. Brain slice samples were prepared 24 hours after the start of infarction and stained with triphenyltetrazolium chloride (TTC staining), and then the cerebral infarct volume was measured from the brain slice samples by image processing.

[2] = system: middle cerebral artery (MCA) occlusion model mice; assay: Evaluation of therapeutic effect on ischemia-reperfusion brain damage (MCA occlusion model, single i.v. dose after reperfusion); assay type: in vivo, male ddY mice; conditions: infarct volume at 24 h
Excerpt: Thus, a model evaluated for therapeutic effect of ischemia-reperfusion brain damage was constructed by administering a drug after reperfusion in the MCA occlusion model, and the effect of the test compound as a therapeutic drug was investigated: the therapeutic effect evaluation model reflects the direct damage by reactive oxygen species (ROIs) and the process to the secondary oxidative stress and inflammatory response due to ROIs. (2) Evaluation Method for Therapeutic Effect of Ischemia-Reperfusion Brain Damage With the use of male ddY mice (25-30 g, 6-7 weeks old), middle cerebral artery (MCA) occlusion model mice were prepared according to the method of Koizumi et al. (“Strokes”, Vol. 8, pp 1-8, 1986). The MCA occlusion was 4 hours, and a single dose of drug solution was intravenously administered 6 or 10 hours after the start of ischemia (i.e., 2 hours or […]). Brain slice samples were prepared 24 hours after the start of infarction and stained with triphenyltetrazolium chloride (TTC staining), and then the cerebral infarct volume was measured from the brain slice samples by image processing.

[3] = system: mouse middle cerebral artery (MCA) occlusion model; conditions: i.v. twice, immediately before infarction and during infarction; prophylactic; cited from earlier work
[4] = single i.v. dose 2 μmol/kg 6 hours after start of ischemia
[5] = single i.v. dose 20 μmol/kg 6 hours after start of ischemia
[6] = i.v. 20 mmol/kg×2 doses (so in the source)

Compound	suppression of the infarct volume ([1]; i.v. 2 μmol/kg×2 doses)	suppression of the infarct volume ([1]; i.v. 20 μmol/kg×2 doses)	suppression of the infarct volume [2, 4]	suppression of the infarct volume [2, 5]	infarct inhibitory effect [3]	suppression of the infarct volume [1, 6]	suppression of the infarct volume ([2]; single i.v. dose 20 μmol/kg 10 hours after start of ischemia)
CC(C)=CCC/C(C)=C/CC/C(C)=C/CO [FO, (2E,6E) farnesol, reference compound]	significant suppression of the infarct volume was not observed	significantly suppressed	–	–	–	–	–
CC1=NN(c2ccccc2)C(=O)C1 [edaravone, reference compound]	significantly suppressed	a significant effect was not observed	–	–	–	–	–
Cc1c(C)c2c(c(C)c1O)CC[C@@](C)(CCC[C@H](C)CCC[C@H](C)CCCC(C)C)O2 [α-Toc, 2R-α-tocopherol, reference compound]	a significant suppression of the infarct volume was not observed	significantly suppressed	–	–	–	–	–
CC(C)=CCC/C(C)=C/CC/C(C)=C/CC[C@]1(C)CCc2c(C)c(OC(=O)CN(C)C)c(C)c(C)c2O1.Cl [α-T3DMG, 2R-α-tocotrienyl N,N-dimethylglycinate hydrochloride]	a significant suppression of the infarct volume was observed	a significant suppression of the infarct volume was observed	significantly suppressed	significantly suppressed	–	–	–
Cc1c(O)cc2c(c1C)O[C@](C)(CCC[C@H](C)CCC[C@H](C)CCCC(C)C)CC2 [γ-Toc, 2R-γ-tocopherol, reference compound]	significantly suppressed	significantly suppressed	significantly suppressed	significantly suppressed	excellent infarct inhibitory effect	–	–
Cc1c(OC(=O)CN(C)C)cc2c(c1C)O[C@](C)(CCC[C@H](C)CCC[C@H](C)CCCC(C)C)CC2.Cl [γ-TDMG, 2R-γ-tocopheryl N,N-dimethylglycinate hydrochloride]	a significant suppression of the infarct volume was observed	–	significantly suppressed	significantly suppressed	–	a significant suppression of the infarct volume was observed	–
2R-γ-tocopheryl phosphate disodium salt [γ-TPS]	–	–	–	a significant suppression of the infarct volume was observed	–	–	–
CC(C)=CCCC(C)=CCCC(C)=CCOC(=O)CN(C)C.Cl [FODMG, farnesol N,N-dimethylglycinate hydrochloride]	significantly suppressed	–	–	significantly suppressed	–	significantly suppressed	significantly suppressed
CC(C)=CCC/C(C)=C/CC/C(C)=C/CC[C@]1(C)CCc2c(C)c(O)c(C)c(C)c2O1 [α-T3, 2R-α-tocotrienol]	–	–	–	–	excellent infarct inhibitory effect	–	–
